# Measured values reported in ChEMBL document CHEMBL4033645, “Design, synthesis, and docking studies of quinazoline analogues bearing aryl semicarbazone scaffolds as potent EGFR inhibitors” (Bioorg Med Chem, 2017).
# Tests used:
# [1] = test system: A549; assay: Induction of apoptosis in human A549 cells after 48 hrs by Annexin V-FITC/propidium iodide-staining based by flow cytometric analysis; assay type: functional, cell-based
# [2] = test system: A549; assay: Cytotoxicity against human A549 cells assessed as decrease in cell viability after 72 hrs by MTT assay; assay type: functional, cell-based; details: A549, 72 h
# [3] = test system: HepG2; assay: Cytotoxicity against human HepG2 cells assessed as decrease in cell viability after 72 hrs by MTT assay; assay type: functional, cell-based; details: Homo sapiens, HepG2, 72 h; read-out: IC50
# [4] = test system: MCF7; assay: Cytotoxicity against human MCF7 cells assessed as decrease in cell viability after 72 hrs by MTT assay; assay type: functional, cell-based
# [5] = test system: PC-3; assay: Cytotoxicity against human PC3 cells assessed as decrease in cell viability after 72 hrs by MTT assay; assay type: functional, cell-based; details: Homo sapiens, PC-3, 72 h; read-out: IC50
# [6] = target: Epidermal growth factor receptor (Homo sapiens, UniProt P00533); assay: Inhibition of EGFR (unknown origin) using FAM-labeled peptide as substrate measured after 10 mins by mobility shift assay
# Sequence of Epidermal growth factor receptor (P00533 whole entry): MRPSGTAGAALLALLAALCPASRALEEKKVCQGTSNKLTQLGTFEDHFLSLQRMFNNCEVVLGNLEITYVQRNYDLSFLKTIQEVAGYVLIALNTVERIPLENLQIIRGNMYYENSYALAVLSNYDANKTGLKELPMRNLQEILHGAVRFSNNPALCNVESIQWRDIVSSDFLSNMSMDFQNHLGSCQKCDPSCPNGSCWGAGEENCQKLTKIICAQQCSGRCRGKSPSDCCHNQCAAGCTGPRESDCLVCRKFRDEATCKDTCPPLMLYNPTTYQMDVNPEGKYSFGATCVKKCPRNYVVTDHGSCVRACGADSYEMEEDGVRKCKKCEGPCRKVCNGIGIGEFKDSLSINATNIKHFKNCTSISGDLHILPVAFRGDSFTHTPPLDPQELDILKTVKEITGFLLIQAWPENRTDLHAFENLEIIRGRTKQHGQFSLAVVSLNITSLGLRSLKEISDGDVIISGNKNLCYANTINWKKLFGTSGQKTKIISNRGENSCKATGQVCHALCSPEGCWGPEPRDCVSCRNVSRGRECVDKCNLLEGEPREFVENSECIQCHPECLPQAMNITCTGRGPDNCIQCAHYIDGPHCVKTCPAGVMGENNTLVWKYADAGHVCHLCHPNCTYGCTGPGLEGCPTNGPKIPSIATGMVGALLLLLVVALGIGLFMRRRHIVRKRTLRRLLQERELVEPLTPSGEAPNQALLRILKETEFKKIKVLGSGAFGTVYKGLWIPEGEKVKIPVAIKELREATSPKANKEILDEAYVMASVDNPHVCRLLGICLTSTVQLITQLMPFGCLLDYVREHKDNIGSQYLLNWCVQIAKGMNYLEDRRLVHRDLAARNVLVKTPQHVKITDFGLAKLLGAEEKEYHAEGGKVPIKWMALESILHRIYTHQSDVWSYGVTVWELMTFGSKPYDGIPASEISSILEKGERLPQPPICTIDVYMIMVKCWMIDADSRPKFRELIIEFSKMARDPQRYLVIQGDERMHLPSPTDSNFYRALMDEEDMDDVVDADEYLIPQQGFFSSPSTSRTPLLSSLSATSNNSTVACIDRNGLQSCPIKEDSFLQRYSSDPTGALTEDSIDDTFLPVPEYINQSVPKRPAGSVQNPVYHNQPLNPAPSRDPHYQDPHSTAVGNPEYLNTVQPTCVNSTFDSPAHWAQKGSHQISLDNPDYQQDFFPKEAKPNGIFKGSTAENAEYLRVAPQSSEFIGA
# [7] = test system: A549; assay: Induction of apoptosis in human A549 cells assessed as viable cells at 0.5 uM after 48 hrs by Annexin V-FITC/propidium iodide-staining based by flow cytometric analysis (reference value: 93.27%); assay type: functional; details: A549, 48 h, read-out: Activity
# [8] = test system: A549; assay: Induction of apoptosis in human A549 cells assessed as early apoptotic cells at 0.5 uM after 48 hrs by Annexin V-FITC/propidium iodide-staining based by flow cytometric analysis (reference value: 3.40%); assay type: functional
# [9] = test system: A549; assay: Induction of apoptosis in human A549 cells assessed as late apoptotic cells at 0.5 uM after 48 hrs by Annexin V-FITC/propidium iodide-staining based by flow cytometric analysis (reference value: 2.69%); assay type: functional
# [10] = test system: A549; assay: Induction of apoptosis in human A549 cells assessed as necrotic cells at 0.5 uM after 48 hrs by Annexin V-FITC/propidium iodide-staining based by flow cytometric analysis (reference value: 0.64%); assay type: functional
# [11] = test system: A549; assay: Induction of apoptosis in human A549 cells assessed as viable cells at 1 uM after 48 hrs by Annexin V-FITC/propidium iodide-staining based by flow cytometric analysis (reference value: 93.27%); assay type: functional; details: A549, 48 h, read-out: Activity
# [12] = test system: A549; assay: Induction of apoptosis in human A549 cells assessed as early apoptotic cells at 1 uM after 48 hrs by Annexin V-FITC/propidium iodide-staining based by flow cytometric analysis (reference value: 3.40%); assay type: functional
# [13] = test system: A549; assay: Induction of apoptosis in human A549 cells assessed as late apoptotic cells at 1 uM after 48 hrs by Annexin V-FITC/propidium iodide-staining based by flow cytometric analysis (reference value: 2.69%); assay type: functional
# [14] = test system: A549; assay: Induction of apoptosis in human A549 cells assessed as necrotic cells at 1 uM after 48 hrs by Annexin V-FITC/propidium iodide-staining based by flow cytometric analysis (reference value: 0.64%); assay type: functional
# [15] = test system: HepG2; assay: Potency index, ratio of afatinib IC50 to compound IC50 for human HepG2 cells; assay type: functional
# [16] = test system: MCF7; assay: Potency index, ratio of afatinib IC50 to compound IC50 for human MCF7 cells; assay type: functional
# [17] = Homo sapiens, MCF7, 72 h, read-out: IC50
Structure (SMILES),IC50 [2],IC50 [3],"IC50 [4, 17]",IC50 [5],further results
O=C(N/N=C/c1ccc(O)cc1)Nc1cc2c(Nc3ccc(F)c(Cl)c3)ncnc2cc1O[C@H]1CCOC1,1.32 µM,0.07 µM,0.91 µM,4.89 µM,Activity [1]: Dose-dependent effect; IC50 [6]: 0.056 µM; viability at 0.5 µM [7]: 83.9%; Activity [8]: 6.81%; Activity [9]: 6.94%; Activity [10]: 2.37%; viability at 1 µM [11]: 77.9%; Activity [12]: 8.81%; Activity [13]: 8.94%; Activity [14]: 4.37%; Ratio IC50 [15]: 19; Ratio IC50 [16]: 2.9
COc1ccc(/C=N/NC(=O)Nc2cc3c(Nc4ccc(F)c(Cl)c4)ncnc3cc2O[C@H]2CCOC2)c(OC)c1OC,25.2 µM,29.3 µM,33.8 µM,25.6 µM,–
CCN(CC)c1ccc(/C=N/NC(=O)Nc2cc3c(Nc4ccc(F)c(Cl)c4)ncnc3cc2OC)c(O)c1,27.3 µM,29.3 µM,27.3 µM,34.3 µM,–
COc1ccc(/C=N/NC(=O)Nc2cc3c(Nc4ccc(F)c(Cl)c4)ncnc3cc2O[C@H]2CCOC2)cc1,33.1 µM,28.8 µM,27.3 µM,34.1 µM,–
COc1cc2ncnc(Nc3ccc(F)c(Cl)c3)c2cc1NC(=O)N/N=C/c1ccc(C#N)cc1,32.2 µM,34.1 µM,–,36.5 µM,–
O=C(N/N=C/c1cccc(Br)c1)Nc1cc2c(Nc3ccc(F)c(Cl)c3)ncnc2cc1O[C@H]1CCOC1,10.7 µM,32.3 µM,12.4 µM,15.5 µM,–
COc1cc2ncnc(Nc3ccc(F)c(Cl)c3)c2cc1NC(=O)N/N=C/c1ccc(O)c(Br)c1,28.6 µM,23.8 µM,–,15.3 µM,IC50 ([4]; mcf7): Not Active
COc1cc(/C=N/NC(=O)Nc2cc3c(Nc4ccc(F)c(Cl)c4)ncnc3cc2O[C@H]2CCOC2)cc(OC)c1OC,26.4 µM,31.2 µM,26.5 µM,29.6 µM,–
COc1cc2ncnc(Nc3ccc(F)c(Cl)c3)c2cc1NC(=O)N/N=C/c1cc(OC)c(OC)c(OC)c1,32.1 µM,30.1 µM,30.7 µM,36.5 µM,–
COc1cc2ncnc(Nc3ccc(F)c(Cl)c3)c2cc1NC(=O)N/N=C/c1ccc(O)cc1O,31.4 µM,32.1 µM,36.2 µM,29.5 µM,–
O=C(N/N=C/c1ccc(O)cc1O)Nc1cc2c(Nc3ccc(F)c(Cl)c3)ncnc2cc1O[C@H]1CCOC1,9.36 µM,4.53 µM,5.35 µM,7.54 µM,–
COc1cc2ncnc(Nc3ccc(F)c(Cl)c3)c2cc1NC(=O)N/N=C/c1ccc([N+](=O)[O-])cc1,35.1 µM,34.1 µM,36.8 µM,32.4 µM,–
COc1cc2ncnc(Nc3ccc(F)c(Cl)c3)c2cc1NC(=O)N/N=C/c1cc(C(C)(C)C)c(O)c(C(C)(C)C)c1,37.1 µM,26.8 µM,28.3 µM,28.7 µM,–
COc1cc2ncnc(Nc3ccc(F)c(Cl)c3)c2cc1NC(=O)N/N=C/c1ccc(OC)c(OC)c1OC,32.8 µM,31.2 µM,–,29.3 µM,IC50 ([4]; mcf7): Not Active
CN(C)C/C=C/C(=O)Nc1cc2c(Nc3ccc(F)c(Cl)c3)ncnc2cc1O[C@H]1CCOC1 [AFATINIB],1.4 µM,–,–,3.96 µM,–
